Several values for one entry are separate records, joined by “and”; a condition that tells them apart may be missing. Equal entries are not always repeated. Activity calls are given as the source filed them.
Tests used:
[1] = molecular target: T1, High affinity choline transporter 1 (Homo sapiens, UniProt Q9GZV3); test: human choline transporter blockers, potency – cell-based, 5-point CRC, membrane potential dye, dose response (AID 504840); type: functional
T1 sequence (Q9GZV3 whole entry): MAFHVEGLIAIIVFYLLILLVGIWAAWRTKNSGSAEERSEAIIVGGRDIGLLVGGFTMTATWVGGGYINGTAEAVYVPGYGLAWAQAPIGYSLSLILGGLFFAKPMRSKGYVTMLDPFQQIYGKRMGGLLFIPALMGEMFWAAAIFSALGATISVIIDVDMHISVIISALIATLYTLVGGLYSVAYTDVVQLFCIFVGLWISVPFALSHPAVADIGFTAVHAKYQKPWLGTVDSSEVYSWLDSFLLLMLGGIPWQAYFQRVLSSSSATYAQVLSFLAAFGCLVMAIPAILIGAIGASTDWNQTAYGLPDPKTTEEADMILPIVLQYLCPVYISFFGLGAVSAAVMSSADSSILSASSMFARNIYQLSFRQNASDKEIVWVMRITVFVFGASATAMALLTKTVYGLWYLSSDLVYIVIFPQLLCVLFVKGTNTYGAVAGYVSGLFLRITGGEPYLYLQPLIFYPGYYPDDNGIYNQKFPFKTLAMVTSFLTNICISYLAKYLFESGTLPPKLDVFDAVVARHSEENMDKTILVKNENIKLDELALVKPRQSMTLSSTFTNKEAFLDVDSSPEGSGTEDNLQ

[2] = molecular target: T1, High affinity choline transporter 1; test: human choline transporter blockers, potency – cell-based, 10-point CRC, membrane potential dye, dose response (AID 588401); type: functional;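 note: membrane potential dye fluorescence of choline-evoked depolarization via CHT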
H4 = test: Luminescence Cell-Based Dose Response HTS to Identify Activators of 5'UTR Stem-Loop Driven Prion Protein mRNA Translation in H4 Neuroglioblastoma Cells. [Related pubchem assays: 1829 (Project Summary), 1814 (Primary HTS)]; type: functional; conditions: Homo sapiens
[3] = Luminescence Cell-Based Dose Response HTS to Identify Activators of Luciferase Translation or Activity in H4 […] Cells. [Related pubchem assays: 1829 (Project Summary), 1814 (Primary HTS)]; type: functional
[4] = Luminescence Cell-Based Dose Confirmation HTS to Identify Activators of 5'UTR Stem-Loop Driven Alpha-Synuclein mRNA Translation in H4 Neuroglioblastoma Cells. [Related pubchem assays: 1829 (Project Summary), 1814 (Primary HTS)]; type: functional
[5] = molecular target: T2, DNA dC->dU-editing enzyme APOBEC-3A (Homo sapiens, UniProt P31941); test: SAR analysis of small molecule inhibitors of APOBEC3A DNA Deaminase via a fluorescence-based single-stranded DNA deaminase assay - Set 2.; type: functional; conditions: read-out: IC50_Mean
[6] = molecular target: T2, DNA dC->dU-editing enzyme APOBEC-3A; test: SAR analysis of small molecule inhibitors of APOBEC3A DNA Deaminase via a fluorescence-based single-stranded DNA deaminase assay.; type: functional; conditions: read-out: IC50_Mean
[7] = molecular target: T2, DNA dC->dU-editing enzyme APOBEC-3A; test: A3A deaminase inhibition for selectivity – biochemical, dose response (AID 504722); type: functional
[8] = molecular target: T3, Rac GTPase-activating protein 1 (Homo sapiens, UniProt Q9H0H5); test: blockers of MgcRacGAP-driven Rac1 GTP hydrolysis – biochemical, ADP Hunter fluorescence, primary and confirmatory, confirmation (AID 624330); type: functional
T3 sequence (Q9H0H5 whole entry): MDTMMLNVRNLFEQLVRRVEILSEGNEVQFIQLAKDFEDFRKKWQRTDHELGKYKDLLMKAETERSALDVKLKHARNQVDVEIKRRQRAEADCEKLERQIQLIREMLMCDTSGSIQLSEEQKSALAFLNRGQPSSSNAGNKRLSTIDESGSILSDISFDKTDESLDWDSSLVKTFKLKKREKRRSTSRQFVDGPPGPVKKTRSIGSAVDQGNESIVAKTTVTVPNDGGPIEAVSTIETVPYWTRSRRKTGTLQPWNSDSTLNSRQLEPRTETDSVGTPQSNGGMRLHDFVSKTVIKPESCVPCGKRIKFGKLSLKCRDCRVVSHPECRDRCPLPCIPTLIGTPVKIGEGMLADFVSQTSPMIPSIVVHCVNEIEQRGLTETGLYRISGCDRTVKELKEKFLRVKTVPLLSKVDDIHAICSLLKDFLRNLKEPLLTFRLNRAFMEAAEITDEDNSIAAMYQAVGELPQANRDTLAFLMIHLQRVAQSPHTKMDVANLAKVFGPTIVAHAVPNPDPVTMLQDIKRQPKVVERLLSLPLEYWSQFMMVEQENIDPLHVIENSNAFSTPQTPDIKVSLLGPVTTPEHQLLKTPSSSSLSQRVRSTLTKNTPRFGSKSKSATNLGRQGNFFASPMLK

[9] = molecular target: T4, DNA dC->dU-editing enzyme APOBEC-3G (Homo sapiens, UniProt Q9HC16); test: inhibition of APOBEC3G ssDNA deamination – biochemical, fluorescence, single-stranded DNA substrate, SAR follow-up (AID 602136); type: functional; conditions: read-out: IC50_Mean
[10] = molecular target: T4, DNA dC->dU-editing enzyme APOBEC-3G; test: SAR analysis of small molecule inhibitors of APOBEC3G DNA Deaminase via a fluorescence-based single-stranded DNA deaminase assay - Set 2.; type: functional; conditions: read-out: IC50_Mean
[11] = molecular target: T4, DNA dC->dU-editing enzyme APOBEC-3G; test: Dose Response confirmation of small molecule APOBEC3G DNA Deaminase Inhibitors via a fluorescence-based single-stranded DNA deaminase assay. [Related pubchem assays (depositor defined):AID493012, AID493028]; type: functional
Insulin-degrading enzyme [12] = molecular target: T5, Insulin-degrading enzyme (Homo sapiens, UniProt P14735); test: cellular IDE activation of Abeta substrate cleavage – fluorescence polarization, HEK cells, dose response (AID 588439); type: functional, cell-based
T5 sequence (P14735 whole entry): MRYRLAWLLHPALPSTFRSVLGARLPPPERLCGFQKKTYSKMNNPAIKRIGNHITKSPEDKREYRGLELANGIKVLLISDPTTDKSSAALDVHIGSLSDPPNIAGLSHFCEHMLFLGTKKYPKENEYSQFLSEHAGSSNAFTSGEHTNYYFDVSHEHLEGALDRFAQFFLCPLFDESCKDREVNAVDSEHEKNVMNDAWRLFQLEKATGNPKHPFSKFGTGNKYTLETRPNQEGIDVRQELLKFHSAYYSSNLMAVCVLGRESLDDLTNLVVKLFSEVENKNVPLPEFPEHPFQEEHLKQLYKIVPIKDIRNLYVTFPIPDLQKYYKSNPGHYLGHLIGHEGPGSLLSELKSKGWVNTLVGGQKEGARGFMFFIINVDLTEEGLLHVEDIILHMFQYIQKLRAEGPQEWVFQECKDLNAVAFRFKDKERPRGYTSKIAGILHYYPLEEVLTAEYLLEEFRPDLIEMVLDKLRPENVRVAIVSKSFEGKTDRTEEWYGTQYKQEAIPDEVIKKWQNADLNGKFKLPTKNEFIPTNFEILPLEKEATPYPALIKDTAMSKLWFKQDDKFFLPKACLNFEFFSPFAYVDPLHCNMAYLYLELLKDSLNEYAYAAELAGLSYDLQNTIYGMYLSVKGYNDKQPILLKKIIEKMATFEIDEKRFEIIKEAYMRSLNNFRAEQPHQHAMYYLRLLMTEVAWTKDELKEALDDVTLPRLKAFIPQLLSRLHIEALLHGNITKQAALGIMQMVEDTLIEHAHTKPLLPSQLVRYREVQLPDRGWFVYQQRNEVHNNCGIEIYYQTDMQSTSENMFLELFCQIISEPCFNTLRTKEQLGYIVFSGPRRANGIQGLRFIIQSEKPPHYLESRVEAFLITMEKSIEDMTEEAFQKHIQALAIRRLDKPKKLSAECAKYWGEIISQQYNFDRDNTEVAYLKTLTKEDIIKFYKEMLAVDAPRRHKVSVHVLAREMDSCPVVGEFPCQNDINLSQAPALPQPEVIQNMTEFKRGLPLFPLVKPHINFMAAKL

Insulin-degrading enzyme [13] = molecular target: T5, Insulin-degrading enzyme; test: recombinant IDE activation, cell-free – biochemical, fluorescence polarization, counter-screen for IDE activator project, dose response (AID 588681)
HEK293 [14] = test: membrane integrity loss in HEK cells – cell-based, fluorescence, cytotoxicity control for IDE activator project, dose response (AID 588440); type: functional; conditions: Homo sapiens;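 note: cytotoxicity by LDH release measuring loss of membrane integrity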
HEK293 [15] = test: optical interference in Abeta FP readout, dose response, artefact control for IDE activator project, biochemical, fluorescence polarization (AID 588442); type: functional, cell-based; conditions: Homo sapiens
[16] = viability of uninfected HEp-2 cells – cell-based, HTS, cytotoxicity control for RSV inhibitor project, dose response (AID 2410); type: functional; conditions: human respiratory syncytial virus
[17] = molecular target: T6, Heat shock factor protein 1 (Mus musculus, UniProt P38532); test: decrease of HSF1-responsive luciferase luminescence – cell-based, NIH3T3, dose retest, confirmation (AID 2382); type: functional;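 note: NIH3T3 fibroblasts with HSF1-driven luciferase reporter stressed by proteasome inhibitor MG132; luminescence from HSF1-driven luciferase expression after 8 hours of MG132 stress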
T6 sequence (P38532 whole entry): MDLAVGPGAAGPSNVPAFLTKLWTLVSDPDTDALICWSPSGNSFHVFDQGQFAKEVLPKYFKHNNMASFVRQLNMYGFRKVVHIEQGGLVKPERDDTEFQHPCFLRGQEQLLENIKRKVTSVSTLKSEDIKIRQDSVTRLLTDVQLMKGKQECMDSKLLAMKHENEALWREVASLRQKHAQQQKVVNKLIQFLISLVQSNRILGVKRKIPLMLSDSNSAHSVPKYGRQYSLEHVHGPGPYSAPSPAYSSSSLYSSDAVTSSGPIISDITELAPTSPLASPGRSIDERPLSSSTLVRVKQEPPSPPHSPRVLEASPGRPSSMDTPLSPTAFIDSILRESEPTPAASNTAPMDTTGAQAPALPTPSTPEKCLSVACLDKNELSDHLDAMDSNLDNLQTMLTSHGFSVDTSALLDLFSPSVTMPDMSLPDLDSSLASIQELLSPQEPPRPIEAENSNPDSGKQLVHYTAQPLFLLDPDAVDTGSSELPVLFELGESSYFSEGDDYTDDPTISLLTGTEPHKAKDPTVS

[18] = molecular target: T2, DNA dC->dU-editing enzyme APOBEC-3A; test: Dose Response confirmation of small molecule APOBEC3A DNA Deaminase Inhibitors via a fluorescence-based single-stranded DNA deaminase assay. [Related pubchem assays (depositor defined):AID493011, AID493024]; type: functional
[19] = molecular target: T4, DNA dC->dU-editing enzyme APOBEC-3G; type: functional

T2 sequence (P31941 whole entry): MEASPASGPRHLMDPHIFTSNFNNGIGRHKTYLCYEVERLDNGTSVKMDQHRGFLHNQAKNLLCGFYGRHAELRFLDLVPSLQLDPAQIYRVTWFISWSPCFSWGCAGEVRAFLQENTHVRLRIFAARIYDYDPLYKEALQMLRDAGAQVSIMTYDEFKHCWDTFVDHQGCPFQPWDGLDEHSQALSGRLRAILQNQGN
T4 sequence (Q9HC16 whole entry): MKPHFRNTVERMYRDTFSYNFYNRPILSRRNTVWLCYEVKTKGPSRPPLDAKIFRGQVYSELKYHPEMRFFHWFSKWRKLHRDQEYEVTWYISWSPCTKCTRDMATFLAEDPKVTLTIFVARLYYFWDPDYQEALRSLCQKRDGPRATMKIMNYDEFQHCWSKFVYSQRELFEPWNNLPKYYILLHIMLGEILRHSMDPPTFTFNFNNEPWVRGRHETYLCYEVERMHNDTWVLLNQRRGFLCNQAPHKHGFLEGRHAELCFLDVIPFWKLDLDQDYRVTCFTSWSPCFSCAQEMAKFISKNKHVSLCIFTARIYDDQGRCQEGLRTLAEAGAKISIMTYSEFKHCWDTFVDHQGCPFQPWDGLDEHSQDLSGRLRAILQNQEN

With `C=CCNc1nc(SC)nc2ccsc12` the IC50 [1] was 1.73 µM (active) and the IC50 [2] was 0.891 µM (active).
For `O=C1NN(c2ccccc2)C(=O)/C1=C/c1coc2ccccc2c1=O`, the IC50 [1] was 5.3 µM (active), the EC50 (H4) was 13.4 µM (active) and the IC50 [2] was 1.27 µM (active). For the same molecule, the EC50 [3] was 44.7 µM (active) and the EC50 [4] was 14.5 µM (active).
With `Cc1ccc(-c2csc3n[nH]c(=S)n23)cc1` the IC50 [5] was > 99 µM (inactive), the IC50 [6] was > 99 µM (inactive) and the IC50 [7] was > 100 µM (inactive). The IC50 [8] was 58.1 µM (active), the IC50 [9] was 3.48 µM (active) and the IC50 [10] was > 99 µM (inactive). For the same molecule, the IC50 [11] was 1.35 µM (active).
For `COc1ccc(NCC(O)COc2ccc(C(C)(C)C)cc2)cc1` (stereo unspecified), the EC50 (Insulin-degrading enzyme [12]) was > 54.7 µM (inactive), the EC50 (Insulin-degrading enzyme [13]) was > 54.7 µM (inactive) and the IC50 (HEK293 [14]) was 49.1 µM (inactive). The EC50 (HEK293 [15]) was > 54.7 µM (inactive).
For `COc1cc(C2Nc3cccc4cccc(c34)N2)ccc1O`, the EC50 (Insulin-degrading enzyme [12]) was > 54.7 µM (inactive), the EC50 (Insulin-degrading enzyme [13]) was > 54.7 µM (inactive) and the IC50 (HEK293 [14]) was > 89.3 µM (inactive). The CC50 [16] was 32.1 µM (active) and the EC50 (HEK293 [15]) was > 54.7 µM (inactive).
With `Nn1c(-c2cccc(Br)c2)n[nH]c1=S` the IC50 [5] was > 99 µM (inactive), the IC50 [6] was > 99 µM (inactive) and the IC50 [7] was > 100 µM (inactive). For the same molecule, the EC50 [17] was 108 µM (active), the IC50 [9] was 0.55 µM (active) and the IC50 [10] was 0.539 µM (active). For the same molecule, the IC50 [11] was 1.45 µM (active).
In the case of `CCn1ncc(-c2ccnc3cc(C(=O)O)nn23)c1C`, the IC50 [5] was 16.4 µM (inactive) and 24.7 µM (inactive), the IC50 [18] was 3.82 µM (active) and the IC50 [6] was 10.7 µM (inactive). The IC50 [9] was > 99 µM (inactive), the IC50 [19] was > 100 µM (inactive) and the IC50 [10] was 93 µM (inactive) and 69.6 µM (inactive).

Source: ChEMBL document CHEMBL1201862, “PubChem BioAssay data set” (2004)
